Results: PubChem BioAssay AID1259411 (Chemical Carcinogenesis Research Information System (CCRIS), 2018)
Active and inactive are the calls of the source. No rule for the calls is given here.

Tested on: rodent carcinogenicity bioassays, tumor incidence
Experiment: CCRIS carcinogenicity studies
Outline: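 Archive of carcinogenicity, mutagenicity, tumor promotion and tumor inhibition results drawn from journals, NCI reports and other sources, expert-reviewed; covers 1985-2011 and is no longer updated.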

Question: For `CC/C(=C(/CC)c1ccc(O)cc1)c1ccc(O)cc1`, which carcinogen call (Species: HAMSTER, Route: PRE-NATAL EXPOSURE, Tumor Site: Type of Lesion: UTERUS, ACCESSORY SEX ORGANS (M), VAGINA, CERVIX, Tumor Site: Type of Lesion: UTERUS, ACCESSORY SEX ORGANS (M), VAGINA, CERVIX) is on record?
Answer: Its carcinogen call is “active; positive”.

Question: What about the carcinogen call (Species: HAMSTER, Route: SUBCUTANEOUS IMPLANT, Tumor Site: Type of Lesion: KIDNEY) of the same compound?
Answer: Its carcinogen call is “active; positive”.

Question: And the carcinogen call (Species: HAMSTER, Route: SUBCUTANEOUS, Tumor Site: Type of Lesion: KIDNEY)?
Answer: Its carcinogen call is “active; positive”.

Question: And the carcinogen call (Species: HAMSTER, Strain/Sex: SYRIAN/MALE, Route: SUBCUTANEOUS IMPLANT, Dose: 0, 20 MG IN PELLETS IMPLANTED EVERY 2.5 MO FOR 9 MO (STUDY DURATION: 9 MO), Tumor Site: Type of Lesion: KIDNEY: TUMOR)?
Answer: Its carcinogen call is “active; positive”.

Question: What about the carcinogen call (Species: HUMAN, Route: DERMAL, Tumor Site: Type of Lesion: CERVIX OR VAGINA) of the same compound?
Answer: The carcinogen call was “active; positive”.

Question: And the carcinogen call (Species: MONKEY, Route: SUBCUTANEOUS, Tumor Site: Type of Lesion: UTERUS)?
Answer: The carcinogen call was “active; positive”.

Question: What about the carcinogen call (Species: MOUSE, Route: NEO-NATAL EXPOSURE, Tumor Site: Type of Lesion: CERVIX, VAGINA) of the same compound?
Answer: Its carcinogen call is “active; positive”.

Question: And the carcinogen call (Species: MOUSE, Route: ORAL, Tumor Site: Type of Lesion: MAMMARY GLAND, CERVIX, VAGINA, Tumor Site: Type of Lesion: MAMMARY GLAND, CERVIX, VAGINA)?
Answer: Its carcinogen call is “active; positive”.

Question: What about the carcinogen call (Species: MOUSE, Route: PRE-NATAL EXPOSURE, Tumor Site: Type of Lesion: CERVIX, VAGINA, OVARIES, Tumor Site: Type of Lesion: CERVIX, VAGINA, OVARIES) of the same compound?
Answer: Its carcinogen call is “active; positive”.

Question: And the carcinogen call (Species: MOUSE, Route: SUBCUTANEOUS IMPLANT, Tumor Site: Type of Lesion: TESTES, MAMMARY GLAND, LYMPHATIC SYSTEM, Tumor Site: Type of Lesion: TESTES, MAMMARY GLAND, LYMPHATIC SYSTEM)?
Answer: The carcinogen call was “active; positive”.

Question: What about the carcinogen call (Species: MOUSE, Route: SUBCUTANEOUS, Tumor Site: Type of Lesion: MAMMARY GLAND, GENITAL TRACT, OVARIES, Tumor Site: Type of Lesion: MAMMARY GLAND, GENITAL TRACT, OVARIES) of the same compound?
Answer: Its carcinogen call is “active; positive”.

Question: What about the carcinogen call (Species: MOUSE, Strain/Sex: C3H/FEMALE, Route: ORAL, Dose: 0, 2.5, 5, 10, 20, 40, 80, 160, 320, 640 PPB IN DIET (STUDY DURATION: 455 D), Dose: 0, 2.5, 5, 10, 20, 40, 80, 160, 320, 640 PPB IN DIET (STUDY DURATION: 455 D), Tumor Site: Type of Lesion: MAMMARY GLAND: ADENOCARCINOMA) of the same compound?
Answer: The carcinogen call was “active; positive”.

Question: What about the carcinogen call (Species: MOUSE, Strain/Sex: C57BL/6/MALE,FEMALE (WILD TYPE), Route: DIET, Dose: 0, 1500 PPB IN DIET FOR 39 WKS (STUDY DURATION: 39 WKS)) of the same compound?
Answer: Its carcinogen call is “inactive; negative”.

Question: What about the carcinogen call (Species: MOUSE, Strain/Sex: C57BL/6/XPA/P53/MALE,FEMALE (TRANSGENIC), Route: DIET, Dose: 0, 1500 PPB IN DIET FOR 39 WKS (STUDY DURATION: 39 WKS), Tumor Site: Type of Lesion: BONE: OSTEOSARCOMA (MALES ONLY), TESTICULAR INTERSTITIAL CELL ADENOMA (BENIGN), MALES) of the same compound?
Answer: The carcinogen call was “active; positive in males only”.

Question: And the carcinogen call (Species: MOUSE, Strain/Sex: C57BL/6XPA/MALE,FEMALE (TRANSGENIC), Route: DIET, Dose: 0, 100, 300, 1500 PPB IN DIET FOR 39 WKS (STUDY DURATION: 39 WKS), Dose: 0, 100, 300, 1500 PPB IN DIET FOR 39 WKS (STUDY DURATION: 39 WKS), Tumor Site: Type of Lesion: PITUITARY: ADENOMA (BENIGN))?
Answer: Its carcinogen call is “significant in males at 1500 ppb only”.

Question: What about the carcinogen call (Species: MOUSE, Strain/Sex: CD-1/FEMALE, Route: INTRAPERITONEAL, Dose: 0, 1 UG/G BW ADMINISTERED TO PREGNANT MICE AT 16 D AND 16 HR, 17 D, OR 17 D 16 HR POST CONCEPTION OR 2 UG/G BW AT 17 D 1, Tumor Site: Type of Lesion: PITUITARY GLAND: TUMOR) of the same compound?
Answer: Its carcinogen call is “active; positive”.

Question: What about the carcinogen call (Species: RAT, Route: NEO-NATAL EXPOSURE, Tumor Site: Type of Lesion: ACCESSORY SEX ORGANS (M)) of the same compound?
Answer: The carcinogen call was “active; positive”.

Question: And the carcinogen call (Species: RAT, Route: ORAL, Tumor Site: Type of Lesion: MAMMARY GLAND, PITUITARY GLAND)?
Answer: Its carcinogen call is “active; positive”.

Question: And the carcinogen call (Species: RAT, Route: SUBCUTANEOUS IMPLANT, Tumor Site: Type of Lesion: MAMMARY GLAND, URINARY BLADDER)?
Answer: The carcinogen call was “active; positive”.

Question: What about the carcinogen call (Species: RAT, Route: SUBCUTANEOUS, Tumor Site: Type of Lesion: MAMMARY GLAND, PITUITARY GLAND) of the same compound?
Answer: Its carcinogen call is “active; positive”.

Question: What about the carcinogen call (Species: RAT, Strain/Sex: ACI/FEMALE, Route: SUBCUTANEOUS IMPLANT, Dose: 0, 1.25 MG/100 G ONCE IN A 20 MG PELLET AT AGES 75, 127 AND 177 D (STUDY DURATION: 347-365 D), Tumor Site: Type of Lesion: MAMMARY GLAND: ADENOCARCINOMA) of the same compound?
Answer: Its carcinogen call is “active; positive”.

Question: And the carcinogen call (Species: RAT, Strain/Sex: WISTAR/FEMALE, Route: SUBCUTANEOUS, Dose: 0, 0.1, 0.5 MG/KG TO MOTHERS ON D 18, 19 AND 20 OF GESTATION (STUDY DURATION: 2 YR), Dose: 0, 0.1, 0.5 MG/KG TO MOTHERS ON D 18, 19 AND 20 OF GESTATION (STUDY DURATION: 2 YR), Tumor Site: Type of Lesion: VAGINA: TUMOR)?
Answer: Its carcinogen call is “active; positive”.

Question: What about the carcinogen call (Species: RAT, Strain/Sex: WISTAR/FEMALE, Route: SUBCUTANEOUS, Dose: 0, 25, 50 MG/KG TO MOTHERS ON D 19 AND 20 OF GESTATION (STUDY DURATION: 2 YR), Dose: 0, 25, 50 MG/KG TO MOTHERS ON D 19 AND 20 OF GESTATION (STUDY DURATION: 2 YR), Tumor Site: Type of Lesion: VAGINA: TUMOR) of the same compound?
Answer: Its carcinogen call is “active; positive”.

Question: How did the carcinogen call (Species: MOUSE, Route: ORAL, Tumor Site: Type of Lesion: LIVER, LUNG) turn out when `C#C[C@]1(O)CC[C@H]2[C@@H]3CCC4=CC(=O)CC[C@@H]4[C@H]3CC[C@@]21C` was run?
Answer: The carcinogen call was “active; positive”.

Question: `O=S(=O)(c1ccc(Cl)cc1)c1ccc(Cl)cc1` was tested. Which carcinogen call (Species: MOUSE, Strain/Sex: B6C3F1/FEMALE, Route: ORAL, Dose: 0, 30, 100, 300 PPM IN DIET FOR 104-105 WK (STUDY DURATION: 104-105 WK), Dose: 0, 30, 100, 300 PPM IN DIET FOR 104-105 WK (STUDY DURATION: 104-105 WK)) did it give?
Answer: Its carcinogen call is “inactive; negative”.

Question: And the carcinogen call (Species: MOUSE, Strain/Sex: B6C3F1/MALE, Route: ORAL, Dose: 0, 30, 100, 300 PPM IN DIET FOR 104-105 WK (STUDY DURATION: 104-105 WK), Dose: 0, 30, 100, 300 PPM IN DIET FOR 104-105 WK (STUDY DURATION: 104-105 WK))?
Answer: Its carcinogen call is “inactive; negative”.

Question: What about the carcinogen call (Species: RAT, Strain/Sex: F344/FEMALE, Route: ORAL, Dose: 0, 30, 100, 300 PPM IN DIET FOR 104-105 WK (STUDY DURATION: 104-105 WK), Dose: 0, 30, 100, 300 PPM IN DIET FOR 104-105 WK (STUDY DURATION: 104-105 WK)) of the same compound?
Answer: Its carcinogen call is “inactive; negative”.

Question: And the carcinogen call (Species: RAT, Strain/Sex: F344/MALE, Route: ORAL, Dose: 0, 10, 30, 100, 300 PPM IN DIET FOR 104-105 WK (STUDY DURATION: 104-105 WK), Dose: 0, 10, 30, 100, 300 PPM IN DIET FOR 104-105 WK (STUDY DURATION: 104-105 WK))?
Answer: Its carcinogen call is “inactive; negative”.

Question: What does the source list for `COc1cccc2c1cc([N+](=O)[O-])c1c(C(=O)O)cc3c(c12)OCO3` (tested in a mixture with another compound)?
Answer: carcinogen call (Species: RAT, Strain/Sex: WISTAR/FEMALE, Route: GAVAGE, Dose: 0.1, 1.0, 10 MG/KG/D, 7 D/WK FOR 3 MO (LOW DOSE ALSO GIVEN FOR 6 OR 12 MO), Dose: 0.1, 1.0, 10 MG/KG/D, 7 D/WK FOR 3 MO (LOW DOSE ALSO GIVEN FOR 6 OR 12 MO), Tumor Site: Type of Lesion: FORESTOMACH: PAPILLOMA, CARCINOMA): active; positive; carcinogen call (Species: RAT, Strain/Sex: WISTAR/MALE, Route: GAVAGE, Dose: 0.1, 1.0, 10 MG/KG/D, 7 D/WK FOR 3 MO (LOW DOSE ALSO GIVEN FOR 6 OR 12 MO), Dose: 0.1, 1.0, 10 MG/KG/D, 7 D/WK FOR 3 MO (LOW DOSE ALSO GIVEN FOR 6 OR 12 MO), Tumor Site: Type of Lesion: FORESTOMACH: PAPILLOMA, CARCINOMA, URINARY BLADDER: PAPILLOMA, CARCINOMA, KIDNEY: CARCINOMA, Tumor Site: Type of Lesion: FORESTOMACH: PAPILLOMA, CARCINOMA, URINARY BLADDER: PAPILLOMA, CARCINOMA, KIDNEY: CARCINOMA): active; positive

Question: `Cc1c2c(c(C)c3c1ccc1ccccc13)CCCC2` was tested. Which carcinogen call (Species: MOUSE, Strain/Sex: SWISS/FEMALE, Route: DERMAL, Dose: 0, 41 UG IN ACETONE (0.2%) 2/WK FOR 65 WK FOR A TOTAL DOSE OF 0, 5.3 MG (STUDY DURATION: 80 WK), Dose: 0, 41 UG IN ACETONE (0.2%) 2/WK FOR 65 WK FOR A TOTAL DOSE OF 0, 5.3 MG (STUDY DURATION: 80 WK), Tumor Site: Type of Lesion: SKIN: CARCINOMA, SKIN: PAPILLOMA) did it give?
Answer: Its carcinogen call is “active; positive”.
